According to patent US20150368617A1, “METHOD FOR FORMING ENDOTHELIAL CELLS” (Korea Advanced Institute of Science and Technology (KAIST), priority 2012, published 2015):

Experiments:
[1] = test system: Flk1+ MPCs; test: Differentiation of MCs from Flk1+ MPCs, FACS of αSMA+ MCs; type: cell-based, mouse; settings: Y27632 10 μM; ML7 5 μM
Method: FIGS. 11A-11D. ROCK suppression promotes the differentiation of ECs through PTEN-Akt signaling and inhibits the differentiation of MCs through MyPT-MLC signaling. (FIG. 11A) Representative FACS analysis of CD31+/CD144+ ECs incubated with 0.1% DMSO or LY294002 (20┌ M; LY) in the presence of PBS (Control) or Y27632 (10┌ M; Y). (FIG. 11B) % of CD31+/CD144+ EC population. Each group, n=3. *p<0.01 versus 0. Each group, n=3. *p<0.01 versus DMSO; ^#p<0.01 versus Y27632. (FIG. 11C) Representative FACS analysis of ┌ SMA+MCs or CD144+ ECs incubated with 0.1% DMSO or ML7 (5 ┌ M) in the presence of PBS (Control) or Y27632 (10┌ M). (FIG. 11D) % of ┌ SMA+MC population. Each group, n=3. *p<0.01 versus 0. Each group, n=3. *p<0.01 versus DMSO. n.s. represents statistically non-significant.
Analysis and sorting for CMs were performed at day 10.5. We harvested differentiated Flk1+ MPCs on OP9 cells with 0.25% trypsin-EDTA or dissociation buffer (Invitrogen). Cardiac troponin-T (cTnT)+ and ┌ smooth muscle actin (SMA)+ cells were analyzed after permeabilization using Cytofix/Cytoperm solution (BD Biosciences) for 15 min. After permeabilization, the cells were incubated for 30 min with anti-mouse cTnT (NeoMarkers) monoclonal antibody. […] Data were analyzed using FlowJo Version 7.5.4 software (TreeStar).

[2] = test system: Flk1+ MPCs; test: Differentiation and expansion of ECs from Flk1+ MPCs in feeder cell-free 2D Matrigel system, FACS of CD31+/CD144+ ECs; type: cell-based, mouse; settings: for EC population: other ROCK inhibitors
Method: E14tg2a ESC cell line was a generous gift from Dr. Jun K. Yamashita (Kyoto University), and R1 ESC cell line was purchased from American Type Cell Culture. Mouse iPSC derived from FVB strain was a generous gift from Drs. Hyun-Jai Cho and Hyo-Soo Kim (Seoul National University Hospital). To obtain Flk1+ MPCs, ESCs and iPSCs were cultured on 0.1% gelatin-coated plates at a density of 1-2×10^3 cells/cm^2 in differentiation medium [┌−minimal essential medium (Invitrogen) supplemented with 10% fetal bovine serum (FBS)] without leukemia inhibitory factor (LIF). At day 4.5, the Flk1+ MPCs were purified by AutoMACS™Pro Separator (Miltenyi Biotec) with biotin-conjugated anti-mouse Flk1 antibody (clone AVAS12a1, eBioscience) and streptavidin MicroBeads (Miltenyi Biotec). The Flk1+MPCs were then subsequently plated onto Matrigel (BD Biosciences)-coated plates at a density of 1˜2×10^4 cells/cm^2, and were cultured in differentiation medium supplemented with VEGF-A165 (50 ng/ml, Peprotech). To purify the ECs from the differentiating Flk1+ cells, the cells were first dissociated and resuspended in HBSS/2% FBS, and were serially incubated with anti-mouse ICAM2 antibody (rat monoclonal, clone 3C4, Biolegend) for 10 min and with anti-rat IgG Microbead (Miltenyi Biotec) for 15 min. […] VEGF-Trap was prepared as previously described. Various signaling inhibitors and activators including SB203580, PD98059, KT5720, Go6976, KT5823, LY294002, rapamycin, Y27632, SB431542, Rho-kinase inhibitor (RKI; H-1152, isoquinolinesulfonamide), and Rho-kinase inhibitor II (RKI-II; pyridyl urea) were purchased from Calbiochem and Sigma-Aldrich.
Cells were harvested with 0.25% trypsin-EDTA (Invitrogen) or dissociation buffer (Invitrogen) and resuspended in HBSS/2% FBS at 1×10^6 cells per 100┌ l. The cells were incubated for 20 min with the following antibodies: biotin-conjugated anti-mouse Flk1 (clone AVAS12a1, eBioscience), allophycocyanin (APC)-conjugated anti-mouse CD140a (clone APA5, eBioscience), phycoerythrin(PE)-conjugated anti-mouse CD31 (clone 390, eBioscience), Alexa Fluor® 647-conjugated anti-mouse CD144 (clone BV13, eBioscience), PE-conjugated anti-mouse D114 (clone HMD4-1, Biolegend), PE-conjugated anti-mouse Tie2 (clone TEK4, eBioscience), PE-conjugated anti-mouse Endoglin (clone MJ7/18, Biolegend), anti-mouse ICAM2 (clone 3C4, Biolegend), APC-conjugated anti-mouse CD140b (clone APBS, eBioscience), PE-conjugated anti-mouse LYVE1 (clone ALY7, eBioscience), anti-mouse VEGFR3 (goat polyclonal, R&D systems), anti-mouse EphB4 (clone VEB4-7E4, Hycult biotech), and PE-conjugated anti-mouse Notch1 (clone HMN1-12, Biolegend). After washing in HBSS/2% FBS twice, the cells were incubated with the following secondary antibodies: PE-conjugated streptavidin (eBioscience), PE-conjugated anti-rat IgG2a (eBioscience), and FITC-conjugated anti-goat IgG (Invitrogen). Dead cells were excluded by 7-aminoactinomycin D (7-AAD, Invitrogen).
Flk1+ MPCs derived from mouse ESCs are capable of differentiating into ECs, hematopoietic cells, mural cells (MCs), and cardiomyocytes. To avoid cell contamination from using feeder cells for differentiation of Flk1+ MPCs, we have established a feeder cell-free 2D Matrigel system (FIG. 1A). Flk1+ MPCs were differentiated from E14tg2a ESC cell line, and when the Flk1+ MPCs were purified at day 4.5 and cultured on Matrigel-coated plates in the differentiation medium, colonies of CD144+ ECs surrounded by ┌ SMA+MCs were formed (FIG. 1B). At day 6.5, population of CD144+/CD31+ ECs grown in differentiation medium was ˜4%, whereas the same EC population was increased up to ˜20% when VEGF-A (50 ng/ml) was supplemented (FIG. 1C). For following experiments, we chose to use 50 ng/ml of VEGF-A (hereafter referred to as VEGF-A) based on its maximal effect on differentiation and expansion of ECs from Flk1+ MPCs.

O=S(=O)(c1cccc2c(I)cccc12)N1CCCNCC1 [ML7]
reduction of αSMA+MC population [1]: ~31%

O=c1cc(N2CCOCC2)oc2c(-c3ccccc3)cccc12 [LY294002]
ROCK suppression-induced differentiation and expansion of ECs ([2]; LY294002 20 μM with Y27632 under VEGF-A stimulus): almost completely suppressed
CD31+/CD144+ EC population ([2]; inhibitor treated with VEGF-A, day 6.5): strongly reduced

VEGF-Trap: blocks the action of VEGF-A; prepared as previously described
ROCK suppression-induced expansion of ECs ([2]; pretreatment of VEGF-Trap (5 μg/ml) during differentiation): totally abolished

O=C(Nc1ccncc1)Nc1c(Cl)cc(Cl)cc1Cl [RKI-II]
EC population [2]: similarly increased

Cc1cncc2cccc(S(=O)(=O)N3CCCNC[C@@H]3C)c12 [RKI]
EC population [2]: similarly increased
